Source: patent publication US20260109721A1, “IONIZABLE CATIONIC LIPIDS INCORPORATING SILICON: SYNTHESIS AND LNP FORMULATION” (priority 2023, published 2026)

How the values were obtained:
[1] = system: HepG2 cell line; experiment: In vitro toxicity study on HepG2 cell line (resazurin, viability and IC50); format: cell-based, human; conditions: for IC50: Homo sapiens, lipid toxicity, HepG2, 48 h post-treatment, 6.25-800 μM, read-out: IC50 value, μM (on HepG2 cell)
In short: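 Resazurin read-out (ex 530/em 580 nm, 5 h at 37 °C) measured lipid toxicity 48 h after dosing HepG2 cells (1000/well) at 6.25–800 μM. Viability was normalised to ethanol vehicle, and IC50 was derived from concentration-response curves.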

[2] = system: HeLa cells; experiment: Transfection efficiency with Luciferase (SecNLuc) mRNA, Nano-Glo assay (Method A); format: cell-based; conditions: Luc mRNA, 24 h, luminescence; for Transfection 10 ng mRNA: 10 ng mRNA/well; for Transfection 50 ng mRNA: 50 ng mRNA/well; for Transfection 100 ng mRNA: 100 ng mRNA/well
In short: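 Luminescence from secreted NanoLuc, read with Nano-Glo reagent, gave transfection efficiency 24 h after HeLa cells were dosed. Method A lipid nanoparticles delivered SecNLuc mRNA at 10, 50 or 100 ng per well in triplicate.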

[3] = system: HeLa cells; experiment: Cell viability assessment with resazurin assay (Method A); format: cell-based; conditions: human
In short: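 Viability is given as percent of control metabolic activity: background-corrected resorufin fluorescence (ex 540, em 610 nm), with OptiMEM-only wells set to 100%. Resazurin at 0.025 mg/ml in DMEM/F12 with 10% FCS was applied to LNP-transfected HeLa cells for 50 min at 37 °C.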

[4] = HepG2 cells, 6.25 μM lipid, 48 h post-treatment, resazurin, relative to ethanol vehicle controls
[5] = HepG2 cells, 12.5 μM lipid, 48 h post-treatment, resazurin, relative to ethanol vehicle controls
[6] = HepG2 cells, 25 μM lipid, 48 h post-treatment, resazurin, relative to ethanol vehicle controls
[7] = HepG2 cells, 50 μM lipid, 48 h post-treatment, resazurin, relative to ethanol vehicle controls
[8] = HepG2 cells, 100 μM lipid, 48 h post-treatment, resazurin, relative to ethanol vehicle controls
[9] = HepG2 cells, 200 μM lipid, 48 h post-treatment, resazurin, relative to ethanol vehicle controls
[10] = HepG2 cells, 400 μM lipid, 48 h post-treatment, resazurin, relative to ethanol vehicle controls
[11] = HepG2 cells, 800 μM lipid, 48 h post-treatment, resazurin, relative to ethanol vehicle controls

Structure (SMILES) | Viability (%) at different lipid concentrations, mean [1, 4] | Viability (%) at different lipid concentrations, mean [1, 5] | Viability (%) at different lipid concentrations, mean [1, 6] | Viability (%) at different lipid concentrations, mean [1, 7] | Viability (%) at different lipid concentrations, mean [1, 8] | Viability (%) at different lipid concentrations, mean [1, 9] | Viability (%) at different lipid concentrations, mean [1, 10] | Viability (%) at different lipid concentrations, mean [1, 11] | IC50 ([1]; resazurin) | Transfection 10 ng mRNA [2] | Transfection 50 ng mRNA [2] | Transfection 100 ng mRNA [2] | Cell Viability % (Average metabolic rate over all doses, Resazurin) [3] | Viability (%) at different lipid concentrations, mean ([1]; human, 48 h, 25 μM)
CCCCCCCC/C=C\CCCCCCCC(OCC(CCCCCCCC)SCCCCC)O[Si](C)(C)OCCCCCCN(CCO)CCO (centres unmarked) [Example 72, (Z)-13-(heptadec-8-en-1-yl)-3-(2-hydroxyethyl)-11,11-dimethyl-16-octyl-10,12,14-trioxa-17-thia-3-aza-11-siladocosan-1-ol] | 104.3% | 94.1% | 102.5% | 101.6% | 100.3% | 96.6% | 110.6% | 103.0% | > 800 µM | 2.05E+03 | 8.79E+04 | 3.60E+05 | 107% | –
CCCCCCCC/C=C\CCCCCCCC(OCCCCCCCCCCCC1CCCCC1)O[Si](C)(C)OCCCCCCN(CCO)CCO (centres unmarked) [Example 74, (Z)-25-cyclohexyl-13-(heptadec-8-en-1-yl)-3-(2-hydroxyethyl)-11,11-dimethyl-10,12,14-trioxa-3-aza-11-silapentacosan-1-ol] | 101.5% | 100.8% | – | 112.5% | 121.9% | 117.3% | 103.1% | 93.8% | > 800 µM | 2.47E+03 | 3.87E+04 | 1.11E+05 | 107% | 107.8%
CCCCCCCC/C=C\CCCCCCCC(OCCC(C)CCCC(C)CCCC(C)CCCC(C)C)O[Si](C)(C)OCCCCCCN(CCO)CCO (centres unmarked) [Example 75, (Z)-13-(heptadec-8-en-1-yl)-3-(2-hydroxyethyl)-11,11,17,21,25,29-hexamethyl-10,12,14-trioxa-3-aza-11-silatriacontan-1-ol] | 110.3% | 109.2% | 105.7% | 104.5% | 102.8% | 112.9% | 102.4% | 90.2% | > 800 µM | 1.68E+03 | 2.82E+04 | 1.07E+05 | 120% | –
CCCCCCCC/C=C\CCCCCCCC(OCCCCCCCCCCCCCCC(C)C)O[Si](C)(C)OCCCCCCN(CCO)CCO (centres unmarked) [Example 76, (Z)-13-(heptadec-8-en-1-yl)-3-(2-hydroxyethyl)-11,11,29-trimethyl-10,12,14-trioxa-3-aza-11-silatriacontan-1-ol] | 101.9% | 100.5% | 98.5% | 100.8% | 112.3% | 103.8% | 77.7% | 70.0% | > 800 µM | 3.30E+03 | 6.71E+04 | 3.34E+05 | 110% | –
CCCCC/C=C\C/C=C\CCCCCCCCOC(CCCCCCC/C=C\C/C=C\CCCCC)O[Si](C)(C)OCCCCCCN(C)[C@H](CO)Cc1ccccc1 (stereo partly drawn) [Example 77, (2S,23Z,26Z)-2-benzyl-13-((8Z,11Z)-heptadeca-8,11-dien-1-yl)-3,11,11-trimethyl-10,12,14-trioxa-3-aza-11-siladotriaconta-23,26-dien-1-ol] | 96.2% | 99.9% | 101.0% | 103.7% | 100.6% | 100.5% | 101.1% | 73.8% | > 800 µM | 3.44E+02 | 2.55E+03 | 6.09E+03 | 112% | –
